Measurements: publication PMC10704437, “Sterol-activated amyloid beta fibril formation” (The Journal of Biological Chemistry, 2023)
Where two headings read alike, the source gives them in different places.

How the values were obtained:
[1] = design: method as in PMID 4525165; settings: reported in 1973; cited from earlier work
[2] = target: T1, Aβ42 (Homo sapiens, UniProt P05067); test: Aβ42 nucleation rate versus [Aβ42]^2 (ThT, early lag phase, linear fit); format: biochemical; settings: linear least-squares fit of Rate-versus-[Aβ42]^2; free ligand 17 × Kd
T1 construct: Small red spheres mark the Aβ42 peptide C-terminal residue, A42; purchased Sigma-Aldrich Corp
Procedure: Reaction 1 of the NEF scheme assumes nucleation is second order in Aβ42 monomer concentration. The reaction order was determined for ligand-bound and free forms of Aβ42 by plotting nucleation rates versus [Aβ42]^n, where n, the reaction order, is 1, 2, or 3—such plots become linear only when n equals the reaction order ([54]). Nucleus formation was monitored via ThT fluorescence in the region of the progress curve where nucleation is rate limiting—the very early stage of the lag phase. Rates were obtained by linear least-squares fitting of progress curves. In all cases, fits were initiated at t0 and deviation from linearity was within experimental error (i.e., χ^2 > 0.95). […] The nucleation rate constants are given by the slopes of the plots (obtained by linear least-squares fitting) and are within the error of those predicted by NEF fitting, see Table 2.
Figure 4 Nucleation reaction order. Reactions were monitored via binding-induced changes in ThT fluorescence (λex = 450 nm, λem = 482 nm). All reactions were performed under the following conditions: ThT (30 μM), DMSO (0.5 % v/v), and K2PO4 (50 mM), pH 7.4, 25 °C ± 2 deg. C. […] A, unliganded Aβ42 nucleation. Titrant concentrations: Aβ42 (1.0, 2.0, 3.0, or 4.0 μM). B, CH•Aβ42 nucleation. […]
The formation of fibril nuclei was monitored via the Aβ-binding induced change in ThT fluorescence (λex = 450 nm, λem = 482 nm, ([42])). […]

[3] = target: T2, Aβ42 monomer (Homo sapiens, UniProt P05067); test: Sterol binding to Aβ42, equilibrium DHE fluorescence titrations
T2 construct: Small red spheres mark the Aβ42 peptide C-terminal residue, A42; purchased Sigma-Aldrich Corp
Procedure: CH ([27]) and CS ([28]) increase the rate of Aβ aggregation and CH is thought to stabilize fibrils ([29]); yet, the affinities of CH and its metabolites for the Aβ peptide monomer have not been determined. Here, CH and CS affinities for the Aβ42 monomer are established using dehydroergosterol (DHE)—a fluorescent CH analog ([30]) used as a competitive probe to determine CH and CS affinities. Aβ42 monomers were prepared as previously described ([31]) (see Methods). […] Under this condition, Aβ42 essentially quantitatively binds DHE until its concentration exceeds that of DHE, which results in a breakpoint in the titration curve that yields the stoichiometry. The arrow seen descending from the breakpoint indicates a stoichiometry of 1:1, which agrees well with the ∼1:1 CH-metabolite:Aβ stoichiometry estimated from analysis of senile plaques micro-dissected from AD-patient brain tissue ([15]).
Figure 1 Sterol binding to Aβ42at equilibrium.A, DHE affinity for monomeric Aβ4_2. […] Binding was detected via the binding-induced 4.4 (±0.2)-fold increase in DHE fluorescence (λex = 325 nm, λem= 375 nm). Fluorescence intensity, I, is plotted relative to the intensity at zero titrant, I0. Titrations were performed independently in triplicate and the line passing through the data is the least-squares fit to a single-binding-site model. B, Aβ42:DHE stoichiometry. […] C. DHE fluorescence (λex = 325 nm, λem = 375 nm) is plotted versus [Aβ42]/[DHE]. The line descending from the titration breakpoint indicates a stoichiometry of 1:1. C and D, CH and CS affinities. Affinities were determined by competitive binding versus DHE. […] C, was titrated with CH (5.0–500 nM, 0.05–5 × Kd) or CS (5.0–500 nM, 0.15–[…] × Kd). Binding was monitored via the decrease in DHE fluorescence (λex = 325, λem = 375) caused by DHE displacement from Aβ42. Controls ensured that <2.0% of Aβ42 oligomerized during the measurement. Titrations were performed in triplicate and averaged. The solid lines through the data represent least-squares fits to a competitive single-binding-site model. C and D, insets highlight the behavior of the titration over ligand concentrations that span their reported CMCs (indicated by arrows). […]
DHE/Aβ42 binding interactions were monitored via the binding-induced 4.4-fold change in DHE fluorescence (λex = 325 nm, λem= 375 nm). […]
The affinities of CH and CS for Aβ42 were determined in competitive binding studies versus DHE. Binding was detected via the fluorescence decrease (λex= 325 nm, λem = 375 nm) caused by DHE displacement. […] Imax = (fraction DHE-bound to peptide at zero competitive ligands)/4.4 — the fold fluorescence change associated with DHE dissociation, see Figure 1A.

T2 sequence (P05067 672-713 limits assumed): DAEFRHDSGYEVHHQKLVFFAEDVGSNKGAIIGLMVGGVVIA
T1 sequence (P05067 672-713 limits assumed): as above

## CC(C)CCC[C@@H](C)[C@H]1CC[C@H]2[C@@H]3CC=C4C[C@@H](O)CC[C@]4(C)[C@H]3CC[C@]12C [CH, cholesterol]
[1]
  critical micelle concentration (CMC): 25 to 40 nM
[2]
  Nucleation rate constant, linear model: 7.3 (0.1) × 10^−14 nM^−1 s^−1
[3]; determined in DHE competition studies, DHE 10 nM, Aβ42 20 nM, K2PO4 50 mM, pH 7.4, 25 °C, read-out: Kd
  Kd: 120 nM

## CC(C)CCC[C@@H](C)[C@H]1CC[C@H]2[C@@H]3CC=C4C[C@@H](OS(=O)(=O)O)CC[C@]4(C)[C@H]3CC[C@]12C [CS, cholesterol 3-sulfate]
[2]
  Nucleation rate constant, linear model: 1.5 (0.1) × 10^−11 nM^−1 s^−1
[3]
  Kd: 36 nM
[3]; ratio of Kd values
  enhanced affinity of CS over CH for Aβ42: 3.4 fold
